# Results published in US9724351B2, “Compounds for the treatment of paramoxyvirus viral infections” (priority 2012, dated 2017).
# Key:
# [1] = tested on: Respiratory Syncytial Virus (RSV) long strain (ATCC#VR-26); experiment: RSV Antiviral Assay (CPE reduction assay); type: cell-based; conditions: human respiratory syncytial virus, 120 h; HEp-2 cells infected with RSV long strain, 5 days, CCK-8 readout; bins (Table 2: less than 1 μM; Table 3: equal to or higher than 1 μM and less than 50 μM); read-out: 50% effective concentration (EC50)
# How it was run: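 Cytopathic-effect protection measured after 5 days at 37 °C, 5% CO2 via CCK-8 dehydrogenase readout at 450 nm (630 nm reference), EC50 regressed from mean O.D. Host HEp-2 cells received RSV long strain at 100 TCID50/well; compound 9-point ⅓ series starting 100 μM or 1 μM, 1% DMSO, duplicate wells.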
# [2] = Cytotoxicity Determination; type: cell-based; conditions: human, HEp-2 cells, without addition of virus, CCK-8 readout, bins (Table 4: greater than 100 μM; Table 5: equal to or less than 100 μM and greater than 10 μM), read-out: 50% cytotoxicity concentration (CC50)
# How it was run: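 CC50 was derived from CCK-8 optical density after a 3-4 h reagent incubation. Before that, cells without virus had been treated for 5 days at 37 °C, 5% CO2 with compound at seven ½-step final concentrations from 100 μM, in duplicate wells.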
Structure (SMILES),EC50 [1] [µM],CC50 at 5 days [2] [µM]
CCNc1ccc(C(=O)NCC(=O)N/N=C(\C)c2csc3ccccc23)cc1OC [Compound 508],1 to 50,> 100
COc1ccc(C(=O)NCC(=O)N/N=C(/c2ccccc2)c2ccc(F)cc2)cc1OC [Compound 430],1 to 50,> 100
COc1ccc(C(=O)NCC(=O)c2nc(-c3csc4c(F)cccc34)cc(C(C)C)c2OC)cc1OC [Compound 1341],1 to 50,> 100
COc1cc(C(=O)NCC(=O)c2ccc(OC)c(-c3ccc(F)c(C)c3)n2)ccc1OCCO [Compound 1325],< 1,> 100
CCCC/C(=N\NC(=O)CNC(=O)c1ccc(OCC)c(OC)c1)c1csc2ccccc12 [Compound 488],< 1,> 100
COCc1ccc(C(=O)NCC(=O)N/N=C(\C)c2csc3ccccc23)cc1OC [Compound 400-6],1 to 50,> 100
C/C(=N\NC(=O)CNC(=O)c1ccc(N2CCCCC2)cc1)c1csc2ccccc12 [Compound 467],1 to 50,> 100
COc1cc(C(=O)NCC(=O)c2ccc(OC)c(-c3ccc(F)c(Cl)c3)n2)ccc1OCCN(C)C [Compound 1314],1 to 50,10 to 100
COc1ccc(C(=O)NCC(=O)c2ccc(OC)c(-c3cccnc3C)n2)cc1OC [Compound 1540],1 to 50,> 100
CNCCOc1ccc(C(=O)NCC(=O)c2ccc(OC)c(-c3ccc(F)c(Cl)c3)n2)cc1OC [Compound 1313],1 to 50,10 to 100
CCCc1cc(C(=O)CNC(=O)c2ccc(OC)c(OC)c2)nc(-c2csc3c(F)cccc23)c1 [Compound 1244],< 1,10 to 100
COc1ccc(C(=O)NCC(=O)N/N=C2\CCNc3ccccc32)cc1OC [Compound 447],1 to 50,> 100
C/C(=N\NC(=O)CNC(=O)c1ccc(N2CCCC2)cc1)c1csc2ccccc12 [Compound 468],1 to 50,> 100
COc1ccc(C(=O)NCC(=O)c2ccc(OC)c(-c3cnoc3)n2)cc1OC [Compound 1510],1 to 50,10 to 100
COc1cc(C(=O)NCC(=O)N(C)/N=C(\C)c2csc3c(F)cccc23)ccc1OCCO [Compound 651],< 1,> 100
COc1ccc(C(=O)NCC(=O)N/N=C(/c2csc3ccccc23)C2CC2)cc1OC [Compound 426],1 to 50,10 to 100
COc1ccc(C(=O)NCC(=O)c2ccc(OC)c(-c3ccc(OC(F)(F)F)cc3)n2)cc1OC [Compound 1532],1 to 50,10 to 100
CCOc1ccc(C(=O)NCC(=O)N/N=C(\C)c2csc3ccccc23)cc1N(CC)CC [Compound 505],1 to 50,10 to 100
COc1ccc(C(=O)NCC(=O)c2ccc(OC)c(-c3ccc4[nH]cnc4c3)n2)cc1OC [Compound 1534],1 to 50,> 100
COc1ccc(C(=O)NCC(=O)N/N=C/c2cc3c(F)cccc3s2)cc1OC [Compound 400-2],1 to 50,10 to 100

Structure (SMILES),EC50 [1] [µM],CC50 at 5 days [2] [µM]
COc1ccc(C(=O)NCC(=O)c2cc(C)cc(-c3csc4c(F)cccc34)n2)cc1OC [Compound 1211],< 1,> 100
CCOc1cc(C(=O)NCC(=O)N/N=C(\C)c2csc3ccccc23)ccc1N(CC)CC [Compound 509],1 to 50,10 to 100
COc1ccc(C(=O)NCC(=O)N/N=C(\C)c2csc3c(N)cccc23)cc1OC [Compound 497],1 to 50,> 100
COc1ccc(C(=O)NC(CO)C(=O)c2ccc(OC)c(-c3csc4c(F)cccc34)n2)cc1OC (centres unmarked) [Compound 1816],< 1,> 100
C/C(=N\NC(=O)CNC(=O)c1ccc2c(c1)OCCO2)c1csc2ccccc12 [Compound 471],1 to 50,> 100
COc1ccc(C(=O)N(C)NC(=O)c2cccc(-c3csc4c(F)cccc34)n2)cc1OC [Compound 3101],1 to 50,10 to 100
COc1ccc(C(=O)NCC(=O)c2cccc(-n3cnc4c(F)cccc43)n2)cc1OC [Compound 2600],1 to 50,10 to 100
COC(=O)c1cc(C(=O)CNC(=O)c2ccc(OCCO)c(OC)c2)nc(-c2csc3c(F)cccc23)c1 [Compound 1257],1 to 50,> 100
COc1cc(C(=O)NCC(=O)N(C)C(=O)Nc2csc3c(F)cccc23)ccc1OCCO [Compound 2802],1 to 50,> 100
COc1ccc(C(=O)NCC(=O)c2cc(C=C(C)C)cc(-c3csc4c(F)cccc34)n2)cc1OC [Compound 1238],1 to 50,> 100
COCC/C(=N\NC(=O)CNC(=O)c1ccc(OC)c(OC)c1)c1csc2c(F)cccc12 [Compound 400-15],< 1,> 100
COc1ccc(C(=O)NCC(=O)N2CCC(c3csc4c(F)cccc34)=N2)cc1OC [Compound 1100],1 to 50,10 to 100
COc1ccc(C(=O)NCC(=O)c2cc(C(C)(C)C)cc(-c3csc4c(F)cccc34)n2)cc1OC [Compound 1252],< 1,> 100
COc1cc(C(=O)N[C@@H](CCCCN)C(=O)c2ccc(OC)c(-c3csc4c(F)cccc34)n2)ccc1OCCO [Compound 1835],< 1,10 to 100
C/C(=N\NC(=O)CNC(=O)c1ccc2c(c1)OC(F)(F)O2)c1csc2ccccc12 [Compound 474],1 to 50,10 to 100
COc1cc(C(=O)CNC(=O)c2ccc(OC)c(OC)c2)nc(-c2ccc(-c3c[nH]nn3)cc2)c1 [Compound 1405],1 to 50,10 to 100
CCCn1nc(-c2csc3c(F)cccc23)nc1C(=O)CNC(=O)c1ccc(OC)c(OC)c1 [Compound 2203],1 to 50,> 100
COc1cc(C(=O)CNC(=O)c2ccc(OC)c(OC)c2)nc(-c2ccc(O)cc2)c1 [Compound 1401],1 to 50,10 to 100
COc1cc(C(=O)NCC(=O)c2ccc(OC)c(-c3ccc(F)c(Br)c3)n2)ccc1OCc1ncn[nH]1 [Compound 3903],< 1,> 100
COc1ccc(C(=O)NCC(=O)c2ccc(OC)c(-c3csc4ccccc34)n2)cc1OC [Compound 1508],< 1,> 100

Structure (SMILES),EC50 [1] [µM],CC50 at 5 days [2] [µM]
COc1cc(C(=O)NCC(=O)c2cc(C(=O)O)cc(-c3csc4c(F)cccc34)n2)ccc1OCCO [Compound 1258],1 to 50,> 100
COc1ccc(C(=O)NCC(=O)N/N=C/c2c(C)[nH]c3ccccc23)cc1OC [Compound 403],1 to 50,> 100
CCCCC/C(=N\NC(=O)CNC(=O)c1ccc(OC)c(OC)c1)c1csc2ccccc12 [Compound 448A],1 to 50,10 to 100
COc1cc(C(=O)NCC(=O)c2ccc(OC)c(-c3ccc(F)c(CF)c3)n2)ccc1OCCO [Compound 1326],< 1,> 100
COc1cc(C(=O)NCC(=O)c2cc(C)c(OC)c(-c3csc4c(F)cccc34)n2)ccc1OCCO [Compound 2103],< 1,10 to 100
COc1cc(C(=O)NCC(=O)c2ccc(OC)c(-c3ccc(F)c(Cl)c3)n2)ccc1OCc1cnc[nH]1 [Compound 1332],< 1,10 to 100
COc1cc(C(=O)NCC(=O)N/N=C(/CC2CCCCC2)c2csc3c(F)cccc23)ccc1OCCO [Compound 606],1 to 50,10 to 100
COc1cc(C(=O)NCC(=O)c2ccc(OC)c(-c3ccc(F)c(Cl)c3)n2)ccc1OCCF [Compound 2648],< 1,> 100
COc1ccc(C(=O)NCC(=O)N/N=C(\CCc2ccccc2)c2csc3ccccc23)cc1OC [Compound 495],1 to 50,10 to 100
COc1cc(C(=O)CNC(=O)c2ccc(OC)c(OC)c2)nc(-c2ccc3[nH]nnc3c2)c1 [Compound 1403],1 to 50,> 100
COc1cc(C(=O)NCC(=O)c2ccc(OC)c(-c3ccc(F)cc3)n2)ccc1OCCO [Compound 1608],< 1,10 to 100
COc1cc(C(=O)NCC(=O)c2ccc(OC)c(-c3csc4ccc(F)cc34)n2)ccc1OCCO [Compound 1609],< 1,> 100
CCc1cc(C(=O)CNC(=O)c2ccc(OCCO)c(OC)c2)nc(-c2csc3c(F)cccc23)c1OC [Compound 2104],< 1,10 to 100
COc1cc(C(=O)NCC(=O)c2ccc(OC)c(-c3ccc(F)c(Br)c3)n2)ccc1OCCO [Compound 1622],< 1,> 100
CNC(=O)COc1ccc(C(=O)NCC(=O)c2ccc(OC)c(-c3ccc(F)c(Cl)c3)n2)cc1OC [Compound 1321],1 to 50,10 to 100
COc1ccc(C(=O)NCC(=O)N/N=C(\C)c2cc(C)sc2C)cc1OC [Compound 438],1 to 50,> 100
COc1cc(C(=O)NCC(=O)N2CCN(c3ccc(F)c(Cl)c3)C2=O)ccc1OCCO [Compound 3900],1 to 50,> 100
COc1cc(C(=O)NCC(=O)c2ccc(OC(F)(F)F)c(-c3csc4c(F)cccc34)n2)ccc1OCCO [Compound 2107],1 to 50,10 to 100
